Experiments:
Assay type in all cases: in vivo
male Wiga Wistar rats = assay: Conditioned avoidance response (CAR) test in rats; conditions: Rattus norvegicus, PO, suspension in 20% hydroxypropyl-b-cyclodextrin containing 1% polysorbate 80
From the text: The apparatus consisted of an inner box surrounded by an outer box. The inner box was composed of four walls of transparent, synthetic material (length×width×height: 30×30×30 cm), an open top, and a grid floor made of 15 pairs of iron bars (2 mm diameter; 6 mm inter-bar distance). Odd and even bars were connected with a source of alternative current (1.0 mA; Coulbourn Instruments Solid State Shocker/Distributor), which could be interrupted by a switch. The outer box was composed of the same material (length×width×height: 40×40×36 cm), also with an open top, with a distance of 5 cm between the inner and outer box on all sides. To decrease the amount of environmental stimuli, three walls of the outer box were made non-transparent. The front wall was left transparent to allow the necessary inspection of the animal during the test. The upper edge of the outer and inner box served as a target for the rats on which to jump with fore- and hind-paws, respectively. Avoidance Conditioning and Selection of Animals From their arrival in the laboratory on the experimental day, male Wiga Wistar rats (230±30 g) were housed in individual cages provided with bedding material. […] Experimental Sessions The rats were tested 3 times, i.e. at 60, 90 and 120 min after the injection of test compound or solvent. Latency to avoidance was recorded. […]

[1] = system: Adult male CF No 1 albino mice; assay: Minimal motor impairment (rotarod) in mice
Experimental: (§1) Test compounds were administered using an optimal fluid volume to body fluid ratio. Test compounds were administered to mice in a volume of 0.01 ml/g of body weight (White, H. S., et al., General principles: Experimental selection, quantification, and evaluation of antiepileptic drugs, in Antiepileptic Drugs, Fourth Edition, R. H. Levy, R. H. Mattson, and B. S. Meldrum, Editors. 1995, Raven Press, Ltd.: New York. p. 99-110). The test compound number 6 was administered orally (p.o.). For each of the tests performed on the test compound, a 40% Hydroxypropyl-β-cyclodextrin (Hp-β-CD) stock solution was first prepared and utilized for formulating the test compound number 6 at the desired concentrations for testing via the oral (p.o.) route. Final compound concentrations were administered as suspensions in 20% Hp-β-CD. A 20% Hp-β-CD solution was used for the vehicle groups.
(§2) Adult male CF No 1 albino mice (26-35 g) were obtained from Charles River, Portage, Mich. The animals were maintained on an adequate diet (Prolab RMH 3000) and allowed free access to food and water, except during the short time they were removed from their cage for testing. Animals newly received in the laboratory were allowed sufficient time to correct for possible food and water restriction incurred during transit before being employed in testing. All mice were housed in plastic cages in specially constructed rooms with controlled humidity, exchange of air and controlled lighting (12 hours on-12 hours off). The animals were housed, fed, and handled in a manner consistent with the recommendations in the National Council Publication, “Guide for the Care and Use of Laboratory animals.” Experimental Design General Methods Minimal Motor Impairment (MMI):
Acute MMI was assessed by a combination of direct observations of the animal for overt symptoms of the animal's neurological or muscular function. In mice, the rotarod procedure was used to disclose minimal muscular or neurological impairment. When a mouse is placed on a rod that rotates at a speed of 6 rpm, the animal can maintain its equilibrium for long periods of time. The animal was considered toxic if it fell off this rotating rod three times during a 1 min period.

[2] = system: Adult male CF No 1 albino mice; assay: 6 Hz psychomotor seizure test in mice; conditions: 10 mg/kg p.o.
Experimental: as §1, §2
Groups of four animals each were administered test compounds and each group was tested at one of five time points: 0.25, 0.5, 1, 2, or 4 h post-treatment (White et al. 1995). TPE was determined using the 6 Hz (32 mA) assay. The time (0.25, 0.5, 1, 2, or 4 h post-treatment) at which maximal protection was observed was considered the Time of Peak Effect (TPE). At the TPE determined for this study, or determined previously, compounds were tested in the 6 Hz assay (32 and/or 44 mA), across several doses and comprising doses that elicited little or no protection to full protection. […] Serum Collection for pK/pD Analysis: In various tests, animals were sacrificed following testing, and trunk blood and/or brain tissue (whole brains) was collected for quantification of drug levels. Immediately after testing, animals were decapitated and trunk blood was collected into a BD Vacutainer® tube containing K2EDTA and chilled on ice until centrifugation. […]

## C[C@H](Oc1ccc(F)cc1F)c1ccn2c(CC3CC3)nnc2c1C(F)(F)F [Compound 6, 3-(Cyclopropylmethyl)-7-[(1S)-1-(2,4-difluorophenoxy)ethyl]-8-(trifluoromethyl)[1,2,4]triazolo[4,3-a]pyridine]
Male Wiga Wistar rats
  ED50: 8.1 mg/kg
[1]; 10 mg/kg p.o., 0.25 h
  # rotarod motor impairment/# tested: 0/4
[1]; 10 mg/kg p.o., 0.5 h
  # rotarod motor impairment/# tested: 0/4
[1]; 10 mg/kg p.o., 1 h
  # rotarod motor impairment/# tested: 0/4
[1]; 10 mg/kg p.o., 2 h
  # rotarod motor impairment/# tested: 0/4
[1]; 10 mg/kg p.o., 4 h
  # rotarod motor impairment/# tested: 0/4
[1]; 20 mg/kg p.o., 0.25 h
  # rotarod motor impairment/# tested: 0/4
[1]; 20 mg/kg p.o., 0.5 h
  # rotarod motor impairment/# tested: 0/4
[1]; 20 mg/kg p.o., 1 h
  # rotarod motor impairment/# tested: 0/4
[1]; 20 mg/kg p.o., 2 h
  # rotarod motor impairment/# tested: 0/4
[1]; 20 mg/kg p.o., 4 h
  # rotarod motor impairment/# tested: 0/4
[1]; dose-response, 6 Hz 32 mA group, 2.5 mg/kg p.o., 0.5 h
  # rotarod motor impairment/# tested: 0/8
[1]; dose-response, 6 Hz 32 mA group, 5 mg/kg p.o., 0.5 h
  # rotarod motor impairment/# tested: 0/8
[1]; dose-response, 6 Hz 32 mA group, 10 mg/kg p.o., 0.5 h
  # rotarod motor impairment/# tested: 0/8
[1]; dose-response, 6 Hz 32 mA group, 20 mg/kg p.o., 0.5 h
  # rotarod motor impairment/# tested: 0/8
[1]; dose-response, 6 Hz 44 mA group, 10 mg/kg p.o., 0.5 h
  # rotarod motor impairment/# tested: 0/8
[1]; dose-response, 6 Hz 44 mA group, 15 mg/kg p.o., 0.5 h
  # rotarod motor impairment/# tested: 0/8
[1]; dose-response, 6 Hz 44 mA group, 20 mg/kg p.o., 0.5 h
  # rotarod motor impairment/# tested: 0/8
[1]; dose-response, 6 Hz 44 mA group, 40 mg/kg p.o., 0.5 h
  # rotarod motor impairment/# tested: 0/8
[2]; 6 Hz 32 mA, 1 h
  # protected/# tested: 0/4
[2]; 6 Hz 32 mA, 4 h
  # protected/# tested: 0/4
[2]; dose-response, 6 Hz 32 mA, 0.5 h TPE
  # protected/# tested: 6/8
[2]; dose-response, 6 Hz 44 mA, 0.5 h TPE
  # protected/# tested: 0/8

From patent US9708315B2, “1,2,4-triazolo[4,3-a]pyridine compounds and their use as positive allosteric modulators of MGLUR2 receptors” (Janssen Pharmaceutica NV, priority 2013, dated 2017)
